# Laboratory results reported in patent US8410170B2, “Use of isothiocyanates compounds in treating prostatic diseases and skin cancer” (Wuxi JC Pharmaceutical Technology Co., Ltd., priority 2005, dated 2013).
# Tested on: non-bacterial prostatitis
# Experiment: Therapeutic effects on non-bacterial prostatitis (Xiaozhiling injection into prostate)
# Type: in vivo, SD rats
# Conditions: for Average of Body Weight / Average Volume of Prostate / Average Weight of Prostate / Inhibition of Organ-coefficient / Organ Coefficient: 5 weeks; for Bleeding: no. of animals with score 0 / Bleeding: no. of animals with score + / Bleeding: no. of animals with score ++ / Bleeding: no. of animals with score +++ / Chronic Inflammatory Infiltration: no. of animals with score 0 / Chronic Inflammatory Infiltration: no. of animals with score + / Chronic Inflammatory Infiltration: no. of animals with score ++ / Chronic Inflammatory Infiltration: no. of animals with score +++ / Congestion: no. of animals with score 0 / Congestion: no. of animals with score + / Congestion: no. of animals with score ++ / Congestion: no. of animals with score +++ / Edema: no. of animals with score 0 / Edema: no. of animals with score + / Edema: no. of animals with score ++ / Edema: no. of animals with score +++ / Fibrous Exudation: no. of animals with score 0 / Fibrous Exudation: no. of animals with score + / Fibrous Exudation: no. of animals with score ++ / Fibrous Exudation: no. of animals with score +++ / Histopathological score of prostatitis, Overall Average X ± SD / Hyperblastosis: no. of animals with score 0 / Hyperblastosis: no. of animals with score + / Hyperblastosis: no. of animals with score ++ / Hyperblastosis: no. of animals with score +++ / Inflammatory Infiltration: no. of animals with score 0 / Inflammatory Infiltration: no. of animals with score + / Inflammatory Infiltration: no. of animals with score ++ / Inflammatory Infiltration: no. of animals with score +++: 9 animals; for urine, 1 h Period / urine, 2 h Period / urine, 3 h Period: last dosing day
# Experimental: Fifty-five male SD rats were randomly divided into 6 groups, 9 each, except the negative control group for which 10 animals were used. All animals from group 1 to 6 were anesthetized by injection of ketamine under sterile conditions and incised around 1.5 cm with a sterilized surgery scalpel at middle of abdomen. Animals in Group 1 were injected penicillin to prevent infection, and given distill water, 10 ml/kg, once a day, 5 times a week for 5 weeks. Groups from 2 to 6 injected 25% Xiaozhiling into left and right lobes of prostate, 0.1 ml for each lobe and sew the muscle and skin with #1 silk thread. The animals were then given penicillin to prevent infectious. Group 2 was served as negative control group in which animals were treated with distill water by gavage 24 hrs after the Xiaozhiling injection, once a day, 5 times a week for 5 weeks. Group 3 was served as positive control group in which animals were treated with GENURIN by gavage 24 hrs after the Xiaozhiling injection at dose of 60 mg/kg, once a day, 5 times a week (escaping weekend) for 5 weeks. […] On the last dosing day, urine samples from different groups that covered periods of 1, 2 and 3 hrs were collected.
# Twenty-four hrs after the last dose, the animals were euthanized and weighed. Volume and weight of prostate were measured. The averages of the prostate weight/volume and organ coefficient (average weight of prostate/average of body weight) were calculated, and statistical analysis performed (t test).
# Prostate tissues of animals from different groups were embedded with paraffin. The tissue sections were stained with H&E for histpathological examination by an anatomical pathologist.
smiles,measurement,setting,value
"S=C=NCCc1ccccc1 [PEITC, phenethyl isothiocyanate]",Average of Body Weight,PEITC 1 mg/kg gavage (Example 13-11),377 ± 39.1 g
same,Average Volume of Prostate,PEITC 1 mg/kg gavage,0.78 ± 0.16 cm^3
same,Average Weight of Prostate,PEITC 1 mg/kg gavage,0.7 ± 0.15 g
same,Inhibition of Organ-coefficient,PEITC 1 mg/kg gavage,28.46%
same,Organ Coefficient,PEITC 1 mg/kg gavage,0.186 ± 0.03 %
same,Bleeding: no. of animals with score 0,PEITC 1 mg/kg,7
same,Bleeding: no. of animals with score +,PEITC 1 mg/kg,2
same,Bleeding: no. of animals with score ++,PEITC 1 mg/kg,0
same,Bleeding: no. of animals with score +++,PEITC 1 mg/kg,0
same,Chronic Inflammatory Infiltration: no. of animals with score 0,PEITC 1 mg/kg,9
same,Chronic Inflammatory Infiltration: no. of animals with score +,PEITC 1 mg/kg,0
same,Chronic Inflammatory Infiltration: no. of animals with score ++,PEITC 1 mg/kg,0
same,Chronic Inflammatory Infiltration: no. of animals with score +++,PEITC 1 mg/kg,0
same,Congestion: no. of animals with score 0,PEITC 1 mg/kg,3
same,Congestion: no. of animals with score +,PEITC 1 mg/kg,6
same,Congestion: no. of animals with score ++,PEITC 1 mg/kg,0
same,Congestion: no. of animals with score +++,PEITC 1 mg/kg,0
same,Edema: no. of animals with score 0,PEITC 1 mg/kg,3
same,Edema: no. of animals with score +,PEITC 1 mg/kg,6
same,Edema: no. of animals with score ++,PEITC 1 mg/kg,0
same,Edema: no. of animals with score +++,PEITC 1 mg/kg,0
same,Fibrous Exudation: no. of animals with score 0,PEITC 1 mg/kg,5
same,Fibrous Exudation: no. of animals with score +,PEITC 1 mg/kg,4
same,Fibrous Exudation: no. of animals with score ++,PEITC 1 mg/kg,0
same,Fibrous Exudation: no. of animals with score +++,PEITC 1 mg/kg,0
same,"Histopathological score of prostatitis, Overall Average X ± SD",PEITC 1 mg/kg,1.83 ± 1.06
same,Hyperblastosis: no. of animals with score 0,PEITC 1 mg/kg,7
same,Hyperblastosis: no. of animals with score +,PEITC 1 mg/kg,2
same,Hyperblastosis: no. of animals with score ++,PEITC 1 mg/kg,0
same,Hyperblastosis: no. of animals with score +++,PEITC 1 mg/kg,0
same,Inflammatory Infiltration: no. of animals with score 0,PEITC 1 mg/kg,9
same,Inflammatory Infiltration: no. of animals with score +,PEITC 1 mg/kg,0
same,Inflammatory Infiltration: no. of animals with score ++,PEITC 1 mg/kg,0
same,Inflammatory Infiltration: no. of animals with score +++,PEITC 1 mg/kg,0
same,"congestion, edema, fibroid and leukocyte infiltration versus untreated prostatitis animals (slide)","PEITC 1 mg/kg, FIG. 7.5",less severe
same,"urine, 1 h Period",PEITC 1 mg/kg,5.5 ± 1.0 mL
same,"urine, 2 h Period",PEITC 1 mg/kg,7.0 ± 0.7 mL
same,"urine, 3 h Period",PEITC 1 mg/kg,7.9 ± 1.0 mL
same,Average of Body Weight,PEITC 2 mg/kg gavage (Example 13-11),360 ± 24.8 g
same,Average Volume of Prostate,PEITC 2 mg/kg gavage,0.82 ± 0.13 cm^3
same,Average Weight of Prostate,PEITC 2 mg/kg gavage,0.70 ± 0.12 g
same,Inhibition of Organ-coefficient,PEITC 2 mg/kg gavage,27.69%
same,Organ Coefficient,PEITC 2 mg/kg gavage,0.188 ± 0.03 %
same,Bleeding: no. of animals with score 0,PEITC 2 mg/kg,8
same,Bleeding: no. of animals with score +,PEITC 2 mg/kg,1
same,Bleeding: no. of animals with score ++,PEITC 2 mg/kg,0
same,Bleeding: no. of animals with score +++,PEITC 2 mg/kg,0
same,Chronic Inflammatory Infiltration: no. of animals with score 0,PEITC 2 mg/kg,8
same,Chronic Inflammatory Infiltration: no. of animals with score +,PEITC 2 mg/kg,0
same,Chronic Inflammatory Infiltration: no. of animals with score ++,PEITC 2 mg/kg,1
same,Chronic Inflammatory Infiltration: no. of animals with score +++,PEITC 2 mg/kg,0
same,Congestion: no. of animals with score 0,PEITC 2 mg/kg,4
same,Congestion: no. of animals with score +,PEITC 2 mg/kg,5
same,Congestion: no. of animals with score ++,PEITC 2 mg/kg,0
same,Congestion: no. of animals with score +++,PEITC 2 mg/kg,0
same,Edema: no. of animals with score 0,PEITC 2 mg/kg,6
same,Edema: no. of animals with score +,PEITC 2 mg/kg,3
same,Edema: no. of animals with score ++,PEITC 2 mg/kg,0
same,Edema: no. of animals with score +++,PEITC 2 mg/kg,0
same,Fibrous Exudation: no. of animals with score 0,PEITC 2 mg/kg,5
same,Fibrous Exudation: no. of animals with score +,PEITC 2 mg/kg,4
same,Fibrous Exudation: no. of animals with score ++,PEITC 2 mg/kg,0
same,Fibrous Exudation: no. of animals with score +++,PEITC 2 mg/kg,0
same,"Histopathological score of prostatitis, Overall Average X ± SD",PEITC 2 mg/kg,2.16 ± 1.52
same,Hyperblastosis: no. of animals with score 0,PEITC 2 mg/kg,7
same,Hyperblastosis: no. of animals with score +,PEITC 2 mg/kg,2
same,Hyperblastosis: no. of animals with score ++,PEITC 2 mg/kg,0
same,Hyperblastosis: no. of animals with score +++,PEITC 2 mg/kg,0
same,Inflammatory Infiltration: no. of animals with score 0,PEITC 2 mg/kg,6
same,Inflammatory Infiltration: no. of animals with score +,PEITC 2 mg/kg,3
same,Inflammatory Infiltration: no. of animals with score ++,PEITC 2 mg/kg,0
same,Inflammatory Infiltration: no. of animals with score +++,PEITC 2 mg/kg,0
same,"urine, 1 h Period",PEITC 2 mg/kg,6.6 ± 2.1 mL
same,"urine, 2 h Period",PEITC 2 mg/kg,8.7 ± 1.7 mL
same,"urine, 3 h Period",PEITC 2 mg/kg,9.2 ± 2.7 mL
same,Average of Body Weight,PEITC 4 mg/kg gavage (Example 13-11),370 ± 24.8 g
same,Average Volume of Prostate,PEITC 4 mg/kg gavage,0.78 ± 0.10 cm^3
same,Average Weight of Prostate,PEITC 4 mg/kg gavage,0.72 ± 0.16 g
same,Inhibition of Organ-coefficient,PEITC 4 mg/kg gavage,26.15%
same,Organ Coefficient,PEITC 4 mg/kg gavage,0.192 ± 0.03 %
same,Bleeding: no. of animals with score 0,PEITC 4 mg/kg,6
same,Bleeding: no. of animals with score +,PEITC 4 mg/kg,3
same,Bleeding: no. of animals with score ++,PEITC 4 mg/kg,0
same,Bleeding: no. of animals with score +++,PEITC 4 mg/kg,0
same,Chronic Inflammatory Infiltration: no. of animals with score 0,PEITC 4 mg/kg,9
same,Chronic Inflammatory Infiltration: no. of animals with score +,PEITC 4 mg/kg,0
same,Chronic Inflammatory Infiltration: no. of animals with score ++,PEITC 4 mg/kg,0
same,Chronic Inflammatory Infiltration: no. of animals with score +++,PEITC 4 mg/kg,0
same,Congestion: no. of animals with score 0,PEITC 4 mg/kg,7
same,Congestion: no. of animals with score +,PEITC 4 mg/kg,2
same,Congestion: no. of animals with score ++,PEITC 4 mg/kg,0
same,Congestion: no. of animals with score +++,PEITC 4 mg/kg,0
same,Edema: no. of animals with score 0,PEITC 4 mg/kg,5
same,Edema: no. of animals with score +,PEITC 4 mg/kg,4
same,Edema: no. of animals with score ++,PEITC 4 mg/kg,0
same,Edema: no. of animals with score +++,PEITC 4 mg/kg,0
same,Fibrous Exudation: no. of animals with score 0,PEITC 4 mg/kg,4
same,Fibrous Exudation: no. of animals with score +,PEITC 4 mg/kg,4
same,Fibrous Exudation: no. of animals with score ++,PEITC 4 mg/kg,1
same,Fibrous Exudation: no. of animals with score +++,PEITC 4 mg/kg,0
same,"Histopathological score of prostatitis, Overall Average X ± SD",PEITC 4 mg/kg,1.72 ± 0.79
same,Hyperblastosis: no. of animals with score 0,PEITC 4 mg/kg,9
same,Hyperblastosis: no. of animals with score +,PEITC 4 mg/kg,0
same,Hyperblastosis: no. of animals with score ++,PEITC 4 mg/kg,0
same,Hyperblastosis: no. of animals with score +++,PEITC 4 mg/kg,0
same,Inflammatory Infiltration: no. of animals with score 0,PEITC 4 mg/kg,7
same,Inflammatory Infiltration: no. of animals with score +,PEITC 4 mg/kg,2
same,Inflammatory Infiltration: no. of animals with score ++,PEITC 4 mg/kg,0
same,Inflammatory Infiltration: no. of animals with score +++,PEITC 4 mg/kg,0
same,histopathological scores versus untreated prostatitis animals (slide),"PEITC 4 mg/kg, FIG. 7.3",less severe
same,"urine, 1 h Period",PEITC 4 mg/kg,5.7 ± 2.2 mL
same,"urine, 2 h Period",PEITC 4 mg/kg,9.4 ± 1.5 mL
same,"urine, 3 h Period",PEITC 4 mg/kg,10.4 ± 1.9 mL
